One series concerns Canidae. The settings on record: oral.
The subject of series [1] is Oryctolagus sp. As to conditions: dermal, New Zealand; for LD50: acute.
The test system of series [2] is Rattus norvegicus. As to conditions: for LC50 / LD50: acute.
The test system of series [3] is Mus musculus.
The subject of series [4] is Rattus norvegicus. As to conditions: subchronic, oral, drinking water, Fischer 344, Deaths + Clinical Observation: Tremors Diarrhea Emaciation Abnormal posture Pallor Tachypnea Comatose state + Body Weight Changes: decrease….
The test system of series [5] is Oryctolagus sp. The settings on record: subchronic; inhalation; M; New Zealand White / Sprague-Dawley; testicular effects.
The test system of another series is Cavia porcellus. As to conditions: acute; inhalation; Guinea Pig.
Series [6] has as its system Mus musculus. The settings on record: uterotrophic; duration: 3 days; injection; intraperitoneal; Active.
The mark [7] stands for this setting: chronic, duration: 118 weeks, oral, diet, F, Sprague-Dawley.
Setting [8] is: chronic, duration: 118 weeks, oral, diet, M, Sprague-Dawley.
[9] abbreviates: developmental, duration: 20 days, oral, drinking water, Osborne-Mendel.
The mark [10] stands for this setting: reproduction developmental, duration: 27 weeks, oral, diet, Charles River Ceesarean albino, generation: F0.
The mark [11] stands for this setting: reproduction developmental, duration: 118 weeks, oral, diet, F, Sprague-Dawley.
The mark [12] stands for this setting: reproduction developmental, duration: 118 weeks, oral, diet, M, Sprague-Dawley.
Where [13] appears, read: reproduction developmental, oral, diet, Crl:CD(SD).
Setting [14] is: subchronic, duration: 90 days, oral, diet, B6C3F1.
Setting [15] is: reproduction developmental, duration: 21 days.
[16] abbreviates: reproduction developmental, duration: 10 days, oral, gavage, F, Crl:CD(SD).
Setting [17] is: reproduction developmental, duration: 28 days, oral, diet.
Setting [18] is: subchronic, duration: 90 days, oral, diet, Sprague-Dawley.

Some results are limits rather than exact numbers.

Take `CC(C)(C)c1cc(CCC(=O)OCCSCCOC(=O)CCc2cc(C(C)(C)C)c(O)c(C(C)(C)C)c2)cc(C(C)(C)C)c1O`: the no observed adverse effect level (NOAEL) in the series with Canidae (subchronic, duration: 90 days, diet, Beagle) is 74 mg/kg-day; with Rattus norvegicus [2] (chronic, duration: 93 days, oral, diet, F), 4.5 mg/kg-day; in the series on Rattus norvegicus [2] (chronic, duration: 93 days, oral, diet, M), 4.4 mg/kg-day; with Rattus norvegicus [2] (subchronic, duration: 90 days, oral, diet) it was 960 mg/kg-day. In addition, the LD50 in the series on Oryctolagus sp. [1] (occlusive) was over 3000 mg/kg; in the series with Rattus norvegicus [2] (oral, gavage) it was over 5000 mg/kg. The same molecule registered an LC50 in the series on Rattus norvegicus [2] (inhalation, whole body) of over 6300 mg/m3.

With `COc1cc(S(=O)(=O)[O-])c(C)cc1N=Nc1c(O)ccc2cc(S(=O)(=O)[O-])ccc12.[Na+].[Na+]`, the LD50 in the series on Canidae (acute, gavage, Dog Other) is over 5000 mg/kg; in the series with Rattus norvegicus [2] (oral, gavage, Sprague-Dawley), over 10000 mg/kg. Besides, the “NOAEL (% diet)” value in the series on Mus musculus [3] (chronic, duration: 104 weeks, oral, diet, CD1) was over 5.19. The LOAEL with Rattus norvegicus [2] (setting [7]) is 3600 mg/kg-day; with Rattus norvegicus [2] (setting [8]), over 2830 mg/kg-day; in the series on Rattus norvegicus [2] (setting [9]), 546 mg/kg-day; with Rattus norvegicus [2] (setting [10]), 51900 ppm; in the series on Rattus norvegicus [2] (setting [11]), 3600 mg/kg-day; in the series with Rattus norvegicus [2] (setting [12]) it was over 2830 mg/kg-day. The LOAEL worked out at 546 mg/kg-day with Rattus norvegicus [2] (reproduction developmental, duration: 20 days, oral, drinking water, Osborne-Mendel, generation: F1) and 51900 ppm in the series on Rattus norvegicus [2] (setting [13]). In addition, the NOAEL in the series on Rattus norvegicus [2] (setting [7]) was determined as 901 mg/kg-day; with Rattus norvegicus [2] (setting [8]), 2830 mg/kg-day; in the series with Rattus norvegicus [2] (developmental, duration: 19 days, oral, gavage, Osborne-Mendel), 1000 mg/kg-day; with Rattus norvegicus [2] (setting [9]), 274 mg/kg-day; in the series with Rattus norvegicus [2] (setting [10]), 13900 ppm; in the series on Rattus norvegicus [2] (setting [11]) it was 901 mg/kg-day. Besides, the NOAEL in the series with Rattus norvegicus [2] (setting [12]) worked out at 2830 mg/kg-day; in the series with Rattus norvegicus [2] (reproduction developmental, duration: 19 days, oral, gavage, F, Osborne-Mendel), 1000 mg/kg-day; in the series on Rattus norvegicus [2] (reproduction developmental, duration: 20 days, oral, drinking water, F, Osborne-Mendel) it was 939 mg/kg-day; with Rattus norvegicus [2] (setting [13]), 13900 ppm.

As to `COCCO` [2-Methoxyethanol], the NOEL was 70 mg/kg-day in the series with Rattus norvegicus [4] (F) and under 114 mg/kg-day in the series on Rattus norvegicus [4] (M/F). The same molecule registered an LOAEL with Oryctolagus sp. [5] of 311 mg/m3. The molecule further gave an NOAEL in the series on Oryctolagus sp. [5] of 93 mg/m3.

As to `CC(C)(c1cc(Br)c(O)c(Br)c1)c1cc(Br)c(O)c(Br)c1` [3,3',5,5'-Tetrabromobisphenol A], the LC50 is over 50 µg/mL with Cavia porcellus; over 50 µg/mL in the series with Mus musculus [3] (acute, inhalation, NMDI); over 28200 mg/m3 in the series on Rattus norvegicus [2] (inhalation); over 50 µg/mL with Rattus norvegicus [2] (inhalation, Wistar). Besides, the lowest observed adverse effect level (LOAEL) was 3070 mg/kg-day in the series on Mus musculus [3] (setting [14]); over 2500 mg/kg-day in the series with Oryctolagus sp. [1] (setting [15]); over 2500 mg/kg-day with Rattus norvegicus [2] (developmental, duration: 19 days, oral, gavage, Wistar); 5000 mg/kg-day with Rattus norvegicus [2] (setting [16]); 6 mg/L in the series on Rattus norvegicus [2] (reproduction developmental, duration: 14 days, inhalation); over 1000 mg/kg-day with Rattus norvegicus [2] (reproduction developmental, duration: 19 days, oral, gavage, F). The LOAEL in the series with Rattus norvegicus [2] (reproduction developmental, oral, gavage, Sprague-Dawley, generation: F0) is 1000 mg/kg-day; with Rattus norvegicus [2] (setting [18]) it was over 100 mg/kg-day. The no observed adverse effect level (NOAEL) in the series on Mus musculus [3] (setting [14]) is 965 mg/kg-day; in the series on Oryctolagus sp. [1] (setting [15]), 2500 mg/kg-day; in the series on Rattus norvegicus [2] (developmental, duration: 19 days, oral, gavage), 1000 mg/kg-day; with Rattus norvegicus [2] (developmental, duration: 20 days, oral, Wistar) it was 2500 mg/kg-day; with Rattus norvegicus [2] (setting [16]), 3000 mg/kg-day; in the series on Rattus norvegicus [2] (reproduction developmental, duration: 20 days, oral, gavage, F, Sprague-Dawley), 1000 mg/kg-day. Besides, the NOAEL was at least 1000 ppm in the series with Rattus norvegicus [2] (setting [17]); over 100 mg/kg-day in the series with Rattus norvegicus [2] (setting [18]); 1000 mg/kg-day in the series with Rattus norvegicus [2] (subchronic, duration: 90 days, oral, gavage, Sprague-Dawley). Besides, the LD50 with Oryctolagus sp. [1] is over 2000 mg/kg; in the series with Rattus norvegicus [2] (oral, gavage, Sprague-Dawley), over 5000 mg/kg. Further, the LOAEC in the series on Rattus norvegicus [2] (setting [17]) is over 1000 ppm. In the series with Mus musculus [6], this molecule registered an LEL of 20 mg/kg-day.

The record behind these values is EPA's ToxValDB 9.5.
